In brackets after ≈: the same amount, converted by molar mass. Read-outs that look alike come from different tables or passages of the source. Numbered stars: 1 amine (or outer) side, 2 acyl side, 3 side chain; on linkers, the order of the positions; unused ones are H or OH. Square brackets hold non-standard residues; d marks the D form. Peptide text beside a SMILES is read from it. X22 = C[C@H](Cc1nc2ccccc2[nH]1)[C@@H](O)[C@H](C(=O)[*:2])N(C)[*:1]; X33 = C[C@H](CCN1CCC(F)(CO)CC1)[C@@H](O)[C@H](C(=O)[*:2])N(C)[*:1]; X29 = C[C@H](CCN(C)Cc1ccccn1)[C@@H](O)[C@H](C(=O)[*:2])N(C)[*:1]; X9 = C[C@H](CC(=O)NCc1ccccc1)[C@@H](O)[C@H](C(=O)[*:2])N(C)[*:1]; X27 = C[C@H](CCN(C)c1ccccn1)[C@@H](O)[C@H](C(=O)[*:2])N(C)[*:1]; X6 = C[C@H](CCN1CCOC[C@H]1C)[C@@H](O)[C@H](C(=O)[*:2])N(C)[*:1]; X11 = C[C@H](CCN(C)CCC#N)[C@@H](O)[C@H](C(=O)[*:2])N(C)[*:1]; X14 = C[C@H](CCCc1ncccn1)[C@@H](O)[C@H](C(=O)[*:2])N(C)[*:1]; d(aThr) = C[C@@H](O)[C@@H](N)C(=O)O; NMeL = CN[C@@H](CC(C)C)C(=O)O; dNMeL = CN[C@H](CC(C)C)C(=O)O; dNMeV = CN[C@@H](C(=O)O)C(C)C; Hiv = CC(C)[C@H](O)C(=O)O; Sar = CNCC(=O)O
Tests used:
cyclophilin D (Cyp D) = cyclophilin D (Cyp D) (Homo sapiens, UniProt P30405); test: Protease-free PPIase assay, cyclophilin D; assay type: biochemical
Summary of the method: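 Cis-trans isomerization of a succinimide-peptide substrate (60 µM final) by 2 nM enzyme was followed at 330 nm in 35 mM HEPES pH 7.8 with 50 µM DTT, stirred at 10.0 °C, DMSO ≤0.5%. First-order rate constants minus background were fitted against inhibitor concentration to give Ki.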

[1] = Water solubility assay (pH 7.8 buffer); assay type: physicochemical
Summary of the method: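 DMSO stocks were diluted into 35 mM HEPES pH 7.8 to final 0–100 μM with 1% DMSO, in triplicate. Plates were shaken 18 h at 25 °C, then precipitation was detected as increased absorbance at 650 nm. Values give the concentration (μM) at which the compound remains in solution.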

cyclophilin A (Cyp A) = molecular target: T1, cyclophilin A (Cyp A) (Homo sapiens, UniProt P62937); test: Protease-free PPIase assay, cyclophilin A; assay type: biochemical
T1 construct: purchased Sigma C3805
Summary of the method: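 Protease-free cis-trans isomerisation: 2 nM recombinant human cyclophilin A with 60 μM succinimide-peptide substrate in 35 mM HEPES pH 7.8 plus DTT, at 10.0 °C, max 0.5% DMSO. Absorbance at 330 nm was fitted to first-order kinetics, background subtracted, and catalytic rates versus inhibitor concentration gave Ki.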

[2] = protease-free PPIase assay, class symbols, read-out: CypD Ki
[3] = 35 mM HEPES buffer, 35 mM HEPES pH 7.8, 1% DMSO, 25° C., 18 h, concentration at which compound remains in solution, read-out: Solubility
[4] = protease-free PPIase assay, class symbols, read-out: CypA Ki

Sequence of cyclophilin D (Cyp D) (P30405 30-207): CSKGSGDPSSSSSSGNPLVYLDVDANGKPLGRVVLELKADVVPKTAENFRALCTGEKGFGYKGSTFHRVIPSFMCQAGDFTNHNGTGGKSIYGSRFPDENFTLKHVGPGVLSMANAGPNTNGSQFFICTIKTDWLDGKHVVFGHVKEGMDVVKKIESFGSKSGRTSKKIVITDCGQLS
T1 sequence (P62937 whole entry): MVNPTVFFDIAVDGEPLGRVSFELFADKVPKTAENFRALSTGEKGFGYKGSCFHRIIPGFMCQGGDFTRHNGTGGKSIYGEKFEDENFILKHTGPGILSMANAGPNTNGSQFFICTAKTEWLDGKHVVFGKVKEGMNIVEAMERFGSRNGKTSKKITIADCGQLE

In the case of `CC(C)C[C@@H]1C(=O)N[C@H](CC(C)C)C(=O)N(C)[C@H](C(C)C)C(=O)N(C)[C@H]([C@H](O)[C@H](C)CCN(C)Cc2ccccn2)C(=O)N[C@H]([C@@H](C)O)C(=O)N(C)CC(=O)N(C)[C@@H](CC(C)C)C(=O)N[C@H](CC(C)C)C(=O)N(C)[C@H](CC(C)C)C(=O)N[C@H](C)C(=O)O[C@@H](C(C)C)C(=O)N1C` [Example 31, cyclo-[(3R,4R,5S)-4-(hydroxy)-3-methyl-5-(methylamino)-1-N-(methyl-pyridin-2-ylmethyl-amino)-hexanoic acid-Thr-Sar-MeLeu-Leu-MeLeu-Ala-D-Hiv-MeLeu-Leu-MeVal]] (cyclo([Hiv][dNMeL][dL][dNMeV][X29][d(aThr)][Sar][NMeL][dL][dNMeL][dA])), the Ki (cyclophilin D (Cyp D); [2]) is reported as 0.001 to 0.025 µM, the solubility at 18 h [1, 3] is reported as 50 to 75 µM (≈ 67.1 to 101 µg/mL) and the Ki (cyclophilin A (Cyp A); [4]) is reported as 0.025 to 0.1 µM.
In the case of `CC(C)C[C@@H]1C(=O)N[C@H](CC(C)C)C(=O)N(C)[C@H](C(C)C)C(=O)N(C)[C@H]([C@H](O)[C@H](C)CCCc2ncccn2)C(=O)N[C@H]([C@@H](C)O)C(=O)N(C)CC(=O)N(C)[C@@H](CC(C)C)C(=O)N[C@H](CC(C)C)C(=O)N(C)[C@H](CC(C)C)C(=O)N[C@H](C)C(=O)O[C@@H](C(C)C)C(=O)N1C` [Example 16, cyclo-[(3R,4R,5S)-4-(hydroxy)-3-methyl-5-(methylamino)-1-(pyrimidin-2-yl)-heptanoic acid-Thr-Sar-MeLeu-Leu-MeLeu-Ala-D-Hiv-MeLeu-Leu-MeVal]] (cyclo([Hiv][dNMeL][dL][dNMeV][X14][d(aThr)][Sar][NMeL][dL][dNMeL][dA])), the Ki (cyclophilin D (Cyp D)) is reported as 0.001 to 0.025 µM, the solubility at 18 h ([1]; pH 7.8) is reported as 25 to 50 µM (≈ 32.8 to 65.7 µg/mL) and the Ki (cyclophilin A (Cyp A)) is reported as 0.001 to 0.025 µM.
For `CC(C)C[C@@H]1C(=O)N[C@H](CC(C)C)C(=O)N(C)[C@H](C(C)C)C(=O)N(C)[C@H]([C@H](O)[C@H](C)Cc2nc3ccccc3[nH]2)C(=O)N[C@H]([C@@H](C)O)C(=O)N(C)CC(=O)N(C)[C@@H](CC(C)C)C(=O)N[C@H](CC(C)C)C(=O)N(C)[C@H](CC(C)C)C(=O)N[C@H](C)C(=O)O[C@@H](C(C)C)C(=O)N1C` [Example 33, cyclo-[(2R,3R,4S)-1-(1H-benzoimidazol-2-yl)-2-methyl-4-methylamino-3-hydroxy-pentanoic acid-Thr-Sar-MeLeu-Leu-MeLeu-Ala-D-Hiv-MeLeu-Leu-MeVal]] (cyclo([Hiv][dNMeL][dL][dNMeV][X22][d(aThr)][Sar][NMeL][dL][dNMeL][dA])), the Ki (cyclophilin D (Cyp D)) was 0.001 to 0.025 µM, the solubility at 18 h ([1]; pH 7.8) was 25 to 50 µM (≈ 33.1 to 66.2 µg/mL) and the Ki (cyclophilin A (Cyp A)) was 0.001 to 0.025 µM.
`CC(C)C[C@@H]1C(=O)N[C@H](CC(C)C)C(=O)N(C)[C@H](C(C)C)C(=O)N(C)[C@H]([C@H](O)[C@H](C)CC(=O)NCc2ccccc2)C(=O)N[C@H]([C@@H](C)O)C(=O)N(C)CC(=O)N(C)[C@@H](CC(C)C)C(=O)N[C@H](CC(C)C)C(=O)N(C)[C@H](CC(C)C)C(=O)N[C@H](C)C(=O)O[C@@H](C(C)C)C(=O)N1C` [Example 36, cyclo-[(3R,4R,5S)-1-benzylcarbamoyl-3-methyl-5-methylamino-4-hydroxy-pentanoic acid-Thr-Sar-MeLeu-Leu-MeLeu-Ala-D-Hiv-MeLeu-Leu-MeVal]] (cyclo([Hiv][dNMeL][dL][dNMeV][X9][d(aThr)][Sar][NMeL][dL][dNMeL][dA])) gave a Ki (cyclophilin D (Cyp D)) of 0.001 to 0.025 µM, a solubility at 18 h ([1]; pH 7.8) of 25 to 50 µM (≈ 33.5 to 67 µg/mL) and a Ki (cyclophilin A (Cyp A)) of 0.001 to 0.025 µM.
Compound `CC(C)C[C@@H]1C(=O)N[C@H](CC(C)C)C(=O)N(C)[C@H](C(C)C)C(=O)N(C)[C@H]([C@H](O)[C@H](C)CCN2CCOC[C@H]2C)C(=O)N[C@H]([C@@H](C)O)C(=O)N(C)CC(=O)N(C)[C@@H](CC(C)C)C(=O)N[C@H](CC(C)C)C(=O)N(C)[C@H](CC(C)C)C(=O)N[C@H](C)C(=O)O[C@@H](C(C)C)C(=O)N1C` [Example 29, cyclo-[(3R,4R,5S)-4-(hydroxy)-3-methyl-5-(methylamino)-1-N—((R)-3-Methyl-morpholine)-hexanoic acid-Thr-Sar-MeLeu-Leu-MeLeu-Ala-D-Hiv-MeLeu-Leu-MeVal]] (cyclo([Hiv][dNMeL][dL][dNMeV][X6][d(aThr)][Sar][NMeL][dL][dNMeL][dA])) has a Ki (cyclophilin D (Cyp D)) of 0.025 to 0.1 µM, a solubility at 18 h ([1]; pH 7.8) greater than 100 µM and a Ki (cyclophilin A (Cyp A)) of 0.025 to 0.1 µM.
`CC(C)C[C@@H]1C(=O)N[C@H](CC(C)C)C(=O)N(C)[C@H](C(C)C)C(=O)N(C)[C@H]([C@H](O)[C@H](C)CCN(C)CCC#N)C(=O)N[C@H]([C@@H](C)O)C(=O)N(C)CC(=O)N(C)[C@@H](CC(C)C)C(=O)N[C@H](CC(C)C)C(=O)N(C)[C@H](CC(C)C)C(=O)N[C@H](C)C(=O)O[C@@H](C(C)C)C(=O)N1C` [Example 27, cyclo-[(3R,4R,5S)-4-(hydroxy)-3-methyl-5-(methylamino)-1-N-(3-methylamino-propionitrile)-hexanoic acid-Thr-Sar-MeLeu-Leu-MeLeu-Ala-D-Hiv-MeLeu-Leu-MeVal]] (cyclo([Hiv][dNMeL][dL][dNMeV][X11][d(aThr)][Sar][NMeL][dL][dNMeL][dA])) showed a Ki (cyclophilin D (Cyp D)) of 0.001 to 0.025 µM, a solubility at 18 h ([1]; pH 7.8) greater than 100 µM and a Ki (cyclophilin A (Cyp A)) of 0.025 to 0.1 µM.
With `CC(C)C[C@@H]1C(=O)N[C@H](CC(C)C)C(=O)N(C)[C@H](C(C)C)C(=O)N(C)[C@H]([C@H](O)[C@H](C)CCN(C)c2ccccn2)C(=O)N[C@H]([C@@H](C)O)C(=O)N(C)CC(=O)N(C)[C@@H](CC(C)C)C(=O)N[C@H](CC(C)C)C(=O)N(C)[C@H](CC(C)C)C(=O)N[C@H](C)C(=O)O[C@@H](C(C)C)C(=O)N1C` [Example 28, cyclo-[(3R,4R,5S)-4-(hydroxy)-3-methyl-5-(methylamino)-1-N-(methyl-pyridin-2-yl-amine)-hexanoic acid-Thr-Sar-MeLeu-Leu-MeLeu-Ala-D-Hiv-MeLeu-Leu-MeVal]] (cyclo([Hiv][dNMeL][dL][dNMeV][X27][d(aThr)][Sar][NMeL][dL][dNMeL][dA])) the Ki (cyclophilin D (Cyp D)) was 0.001 to 0.025 µM, the solubility at 18 h ([1]; pH 7.8) was 25 to 50 µM (≈ 33.2 to 66.4 µg/mL) and the Ki (cyclophilin A (Cyp A)) was 0.001 to 0.025 µM.
In the case of `CC(C)C[C@@H]1C(=O)N[C@H](CC(C)C)C(=O)N(C)[C@H](C(C)C)C(=O)N(C)[C@H]([C@H](O)[C@H](C)CCN2CCC(F)(CO)CC2)C(=O)N[C@H]([C@@H](C)O)C(=O)N(C)CC(=O)N(C)[C@@H](CC(C)C)C(=O)N[C@H](CC(C)C)C(=O)N(C)[C@H](CC(C)C)C(=O)N[C@H](C)C(=O)O[C@@H](C(C)C)C(=O)N1C` [Example 25, cyclo-[(3R,4R,5S)-4-(hydroxy)-3-methyl-5-(methylamino)-1-N-((4-fluoro-piperidin-4-yl)-methanol)-hexanoic acid-Thr-Sar-MeLeu-Leu-MeLeu-Ala-D-Hiv-MeLeu-Leu-MeVal]] (cyclo([Hiv][dNMeL][dL][dNMeV][X33][d(aThr)][Sar][NMeL][dL][dNMeL][dA])), the Ki (cyclophilin D (Cyp D); [2]) is reported as 0.1 to 0.3 µM, the solubility at 18 h [1, 3] is reported as greater than 100 µM and the Ki (cyclophilin A (Cyp A); [4]) is reported as 0.1 to 0.3 µM.

— US9382295B2, “Cyclic depsipeptide compounds and their uses” (Cypralis Limited, priority 2012, dated 2016)
